Here are results for 2 molecules from publication PMC7139875, “4-Pyridinio-1,4-Dihydropyridines as Calcium Ion Transport Modulators: Antagonist, Agonist, and Dual Action” (Oxidative Medicine and Cellular Longevity, 2020).

Read-outs that look alike come from different tables or passages of the source.

Data set [1] deals with carbachol-dependent mobilization of intracellular Ca2+ in SH-SY5Y cells. Put plainly: Antagonist effect on carbachol-evoked intracellular Ca2+ mobilization (Fluo-4 NW). Type of data set: cell-based, human. Particulars: Homo sapiens. How it is done: (§1) The intracellular free Ca^2+ concentration [Ca^2+]i was measured in confluent monolayers of SH-SY5Y or A7R5 cells with the Ca^2+-sensitive fluorescent indicator Fluo-4 NW according to the instruction (Fluo-4 NW Calcium Assay Kit, Thermo Fisher Scientific, cat. No. F36206) (as referenced by Vilskersts et al..
The investigation of Ca^2+ channel blocking activity of DHP derivatives was based on the effect of DHP on carbachol evoked intracellular Ca^2+ mobilization in human neuroblastoma cells.
The cells were preincubated in the dark for 15 minutes with the tested compounds at concentrations ranging from 0.16 to 100 μM. The application of carbachol (100 nM) to […] NW loaded SH-SY5Y cells stimulated a classic “biphasic” response. The well-known 3rd generation calcium channel inhibitor amlodipine, which is also claimed to act as antioxidant and free radical scavenger, was used as the positive control (at the concentration range from 20 to 100 μM).
(§2) Changes in [Ca^2+]i were measured from the fluorescence emitted at 516 nm due to alternate excitation at 494 nm using the microplate reader Tecan Infinite M1000 (Austria). Intracellular Ca^2+ concentration was calculated from a standard curve with known amounts of free Ca^2+ using the standard Ca^2+-EGTA buffering system (Calcium Calibration Buffer Kit, cat. No.C-3008, Thermo Fisher Scientific).
The IC50 values for the tested compounds were calculated using GraphPad Prism 4.0 software.

The test system of a further data set is [Ca2+]i in SH-SY5Y cells. Put plainly: Ca2+ channel agonist activity, [Ca2+]i in Fluo-4 NW-loaded cells. The class given is cell-based, human. The settings on record: for Agonist activity (RFU, 100 μM): compound at 100 μM. The protocol: as §1
(§3) For the investigation of Ca^2+ channel agonist activity of the DHP compound, 4 […] NW loaded SH-SY5Y or A7R5 cells were stimulated by the addition of compound 4 at the concentration range from 4 to 100 μM. The well-known calcium channel agonist Bay K8644 was used as the positive control (at the concentration range from 4 to 100 μM).
as §2
In some experiments, […] NW loaded cells were washed and placed in normal Ca^2+-free HEPES-buffered replacement medium. In Ca^2+ restoration experiments, Ca^2+ was initially absent from the medium and was restored to 1 mM after 870 s of stimulation with compound 4.

A further data set relates to isolated rat aortic ring. Put plainly: Isolated rat aortic ring model, KCl precontracted denuded rings. The settings on record: for EC50: KCl precontracted denuded rat aortic rings, read-out: Calcium channel blocking activity EC50. How it is done:
The experimental animal (one rat) was anesthetized with pentobarbital sodium (60 mg/kg i.p.). Once deep anesthesia was achieved, the thoracic aorta was dissected, placed in ice cold Krebs-Henseleit (K-H) buffer (content in mM: NaCl 118, KCl 4.7, CaCl2 2.5, MgCl2 1.64, NaHCO3 24.88, KH2PO4 1.18, glucose 10.0, sodium pyruvate 5.0, and disodium salt of ethylenediaminetetraacetic acid 0.05), cleaned from connective and fatty tissues, and cut into 3-4 mm long rings. Endothelium was mechanically scraped off with the tips of forceps, and the aortic rings were mounted between two stainless steel hooks attached to an isometric force transducer in 20 ml organ bath in K-H buffer bubbled with 95% O2 and 5% CO2 at 37°C (one separate aortic ring was used for each tested compound). Passive tension was adjusted to approximately 40 mN over a 60 min equilibration period. The experiment was started after the equilibration period by adding KCl solution to obtain a concentration of 50 mM. Addition of KCl induced contraction of the aortic rings, and a plateau of contraction was reached about […]. Thereafter, the tested compound solutions in dimethyl sulfoxide were added to the aortic rings in order to obtain the final concentrations in the range of 10^−10-10^−5 M. Changes in the tension were recorded using LabChart Pro software from ADInstruments (https://www.adinstruments.com/products/labchart/labchart-for-research). The EC50 values of the tested compounds were calculated using Prism 3.0 software from GraphPad (GraphPad Software Inc., USA) (https://www.graphpad.com/scientific-software/prism/). The experimental procedures involving experimental animals were carried out in accordance with the guidelines of the European Community, LR local laws and policies, and were approved by the Latvian Animal Protection Ethical Committee, the Food and Veterinary Service, Riga, Latvia.

Data set [2] can be described thus: Electrochemical oxidation potentials by cyclic voltammetry. Type of data set: physicochemical. The settings on record: glassy carbon electrode, vs Ag/Ag+, acetonitrile, 0.1 M TBABF4. How it is done: The cyclic voltammetry experiments were carried out on the PARSTAT 2273 electrochemical system. A stationary glassy carbon disk electrode (d = 0.8 mm) served as the working electrode, while the counter electrode was a Pt wire. The oxidation potentials were measured relative to Ag/Ag^+ reference electrode. Acetonitrile was dried over P2O5 and distilled; the distillate was stored over CaH2 and redistilled just before use. Recrystallized tetrabutylammonium tetrafluoroborate (TBABF4) was used as a supporting electrolyte at 0.1 M concentration.

A further data set deals with [Ca2+]i in A7R5 cells. Briefly: Ca2+ channel agonist activity in A7R5 aorta smooth muscle cells. The class given is cell-based, rat. Particulars: 20 to 100 μM. The protocol: as §1, §3, §2
Data set [3] concerns Ca2+ ion channel activity evoked by compound 4 in SH-SY5Y cells. Briefly: Inhibitor analysis of Ca2+ ion channel activity evoked by compound 4. The class given is cell-based, human. The protocol: The intracellular free Ca^2+ concentration [Ca^2+]i was measured in confluent monolayers of SH-SY5Y or […] cells with the Ca^2+-sensitive fluorescent indicator Fluo-4 NW according to the instruction (Fluo-4 NW Calcium Assay Kit, Thermo Fisher Scientific, cat. No. F36206) (as referenced by […] al.. Changes in [Ca^2+]i were measured from the fluorescence emitted at 516 nm due to alternate excitation at 494 nm using the microplate reader Tecan Infinite M1000 (Austria). Intracellular Ca^2+ concentration was calculated from a standard curve with known amounts of free Ca^2+ using the standard Ca^2+-EGTA buffering system (Calcium Calibration Buffer Kit, cat. No.C-3008, Thermo Fisher Scientific). […] The commercial calcium agonist compound Bay […] was used as the reference compound.

For data set [4], the system named is carbachol-dependent mobilization of intracellular Ca2+ in SH-SY5Y cells. More on the design: method as in earlier work. The settings on record: SH-SY5Y cells stimulated by 100 nM carbachol; read-out: Antagonist effect IC50; cited from earlier work.
[5] abbreviates: SH-SY5Y cells, 100 nM carbachol, 15 min preincubation, read-out: Antagonist activity (IC50).

As to `CCOC(=O)COC(=O)C1=C(C)NC(C)=C(C(=O)OCC(=O)OCC)C1c1ccc[n+](C(C)C(=O)c2ccc(OCc3ccccc3)cc2)c1` (stereo not shown) [Compound 4], the inhibition (usually the change of the read-out against control, counted positive when it falls) at 8 µM in data set [1] (SH-SY5Y, compound at 0,8 μM, read-out: Inhibition (%) of Ca2+ channels activated with carbachol) is 4 ± 10%. For the same molecule, in data set [1] (SH-SY5Y, compound at 0,16 μM, read-out: Inhibition (%) of Ca2+ channels activated with carbachol), the inhibition at 16 µM is -16 ± 10%. In data set [1] (SH-SY5Y, compound at 4 μM, read-out: Inhibition (%) of Ca2+ channels activated with carbachol), the inhibition at 4 µM worked out at 11 ± 12%. Further, in data set [1] (SH-SY5Y, compound at 20 μM, read-out: Inhibition (%) of Ca2+ channels activated with carbachol), the inhibition at 20 µM was 71 ± 9%. Also, the half-inhibitory concentration (IC50) (in general, the concentration needed to halve the response being measured) in data set [1] (setting [5]) was 12 ± 2 µM; in data set [1] (Table 5, SH-SY5Y cells, read-out: IC50, antagonist effect on Ca2+ channels activated with carbachol) it was 12 ± 2 µM. For the same molecule, the “Decrease of intracellular [Ca2+]i signal in the absence of extracellular Ca2+” value in data set [Ca2+]i in SH-SY5Y cells (100 μM compound, compared to presence of extracellular Ca2+) came out at 50%. Moreover, the “Agonist activity (RFU, 100 μM)” value in data set [Ca2+]i in SH-SY5Y cells worked out at 14425 ± 1072 RFU. Further, in the data set with isolated rat aortic ring, the EC50 (as a rule, the concentration at which the effect is half-maximal) is 0.691 ± 0.167 µM. Besides, the “Calcium channel blocking activity relative to amlodipine (times weaker)” value in the data set on isolated rat aortic ring (isolated rat aortic ring model) is given as “about 50 times”. The “Agonist effect (contractions of aorta rings)” value in the data set on isolated rat aortic ring (isolated rat aortic rings) was “no agonist effect”. In data set [2], this molecule came in with an Electrooxidation potential of 1.68 V. In addition, the “Ca2+ ion channel agonist activity” value in data set [Ca2+]i in A7R5 cells is “dose-dependent agonist activity”.

For `CCOC(=O)C1=C(COCCN)NC(C)=C(C(=O)OC)C1c1ccccc1Cl` (stereo not shown) [Amlodipine], the half-maximal inhibitory concentration (IC50) is 11 ± 2 µM in data set [1] (setting [5]); 100 µM in data set [3] (Homo sapiens, 100 μM compound 4, SH-SY5Y cells, read-out: IC50 for inhibition of Ca2+ ion channel activity evoked by compound 4); 13 µM in data set [4]. The “Agonist activity (RFU, 100 μM)” value in data set [Ca2+]i in SH-SY5Y cells is recorded as “No effect”. The inhibition at 100 µM in data set [3] (Homo sapiens, SH-SY5Y, inhibitor 100 μM, 15 min preincubation, 100 μM compound 4) stood at 50 ± 11%. Further, the “Inhibition (%) of Ca2+ ion channel activity evoked by compound 4” value in data set [3] (inhibitor 4 μM, 100 μM compound 4) came to 0 ± 6%; in data set [3] (inhibitor 20 μM, 100 μM compound 4) it was 10 ± 11%. Besides, in data set [3] (inhibitor 100 μM, 100 μM compound 4), the “Phase of the compound 4 response that is inhibited” value is “inhibited the first phase of the response”. For the same molecule, the EC50 with isolated rat aortic ring amounted to 0.0143 ± 0.0003 µM.
